≈ marks a conversion by molar mass, not a printed value.
What was measured:
[1] = test system: TNF-α; test: Real-time PCR of TNF-α mRNA in LPS-stimulated RAW-Blue cells; format: cell-based, murine; conditions: LPS 1 μg/mL, 5, 10, 20 μg/mL, 20 hours
Experimental: (§1) After macrophages are treated with 1 μg/mL of LPS in absence or presence various concentrations of Pd-Ib (5, 10, 20 μg/mL) for 20 hours, the mRNA levels of iNOS (A), TNF-α (B) and IL-1β (C) are determined by real time PCR, while the production of NO (D) is determined by Griess reagent. Data are derived from three independent experiments and presented as mean±SEM, “con” stands for the vehicle control group. ^#Compared with control group. *P<0.05, **P<0.01 and ***P<0.001 are compared with LPS-alone group.
(§2) Raw-Blue cells are plated at 20×10^5 cells/well in 12-well plate. After 24 hours of incubation, cells are pretreated with various concentrations (5-20 μg/mL) of Pd-Ib for 2 hours, followed by co-culturing with LPS (1 μg/mL) for 20 hours. Total RNA of Raw-Blue cells is extracted by Trizol reagent. Two micrograms (2 μg) of total RNA are reverse-transcribed with RT master mix to obtain cDNA. Real-time PCR is performed in a ViiA7 real-time PCR instrument (Applied Biosystems, Life Technologies, CA, USA) with the SYBR Green kit. A melting curve analysis is carried out after amplification to verify the accuracy of the amplicon. The comparative cycle of threshold (ΔΔCT) method of relative quantification is used to determine the fold-change in expression. Primer sequences for mRNA analysis of IL-1β, TNF-α, iNOS and β-Actin are described in Table 1.

[2] = test system: Myeloperoxidase (MPO); test: Neutrophil infiltration in colon tissue (MPO assay); format: in vivo, C57BL/6 mice; conditions: DSS-induced colitic mice, Pd-Ib treatment groups
Experimental: Myeloperoxidase (MPO) is an enzyme mainly released by neutrophil, and its activity is directly associated with the severity of inflammation in a given tissue. In this example, MPO activity is measured as described in our previous study. Briefly, the colon tissues kept at −80° C. are weighed and homogenized in 0.5% hexadecyltrimethylammonium bromide 1 mL per 100 mg of colon tissue. The homogenates are centrifuged at 19 000 rpm at 4° C. for 15 min. Aliquots of 80 iL supernatant are mixed with 120 μL potassium phosphate buffer (50 mmol, pH 6.0) with 0.0005% o-dianisidine dihydrochloride and 0.1% hydrogen peroxide. Changes in optical density are measured at 460 nm at room temperature (25° C.). MPO activity is calculated from the rate of optical density changes and one unit of MPO activity is defined as the amount of enzyme present that produced a change in optical density of […] at 25° C. in the final reaction volume. The results are normalized to the wet weight of colon tissue and quantified as units/mg tissue.
Colitis is induced in all groups except the control group. Pd-Ib and sulfasalazine are administered to mice from day 6 to day 12. On day 13, the mice are sacrificed, and MPO activity is determined in colon homogenates. Data are expressed as mean±SEM, n=8 (*p<0.05, **p<0.01, ***p<0.001, compared with DSS model group).

[3] = test system: iNOS; test: Real-time PCR of iNOS mRNA in LPS-stimulated RAW-Blue cells; format: cell-based, murine; conditions: LPS 1 μg/mL, 5, 10, 20 μg/mL, 20 hours
Experimental: as §1, §2

[4] = test system: RAW-Blue cells; test: Cell viability (MTT) assay; format: cell-based, murine; conditions: 24 hours
Experimental: Cells are cultured for 24 hours in the presence of Pd-Ib at the concentrations indicated, from 1.25-100 μg/mL. Cell viability is assessed using MTT assay. Data are derived from three independent experiments and presented as mean±SEM. “con” stands for the vehicle control group.
Cells (5×10^4) are cultured in 96-well plates for 24 hours. Then cells are cultured with various concentrations of Pd-Ib (1.25, 2.5, 5, 10, 20, 40, 80, 100 μg/mL) for 24 hours. After that, 10 μL of 5 mg/mL MTT is added to each well, and the cells are cultured in the dark for 3 hours. The medium is then discarded, and 100 μL of dimethyl sulfoxide (DMSO) is added into each well. After 15 min incubation, the optical density at 570 nm is read by using a micro-plate reader to determine the cell viability.

[5] = test system: IL-1β; test: Real-time PCR of IL-1β mRNA in LPS-stimulated RAW-Blue cells; format: cell-based, murine; conditions: LPS 1 μg/mL, 5, 10, 20 μg/mL, 20 hours
Experimental: as §1, §2

[6] = test system: NF-κB; test: Anti-inflammatory bioassay (Quanti-Blue assay), SEAP activity; format: cell-based, murine; conditions: Mus musculus, Macrophage; LPS-stimulated macrophages; read-out: IC50, inhibition of SEAP activity
Experimental: RAW-Blue cells (5×10^4) are cultured in 96-well plate for 24 hours, and then treated with LPS (1 μg/mL) alone or together with test samples for 20 hours. Secreted embryonic alkaline phosphatase (SEAP) activity in the conditioned medium is determined using QUANTI-Blue medium following manufacturer's manual. Briefly, 100 μL samples are added to 200 μL of QUANTI-Blue medium and incubated at 37° C. for 15 to 30 minutes. Absorbance is measured at 620 nm using a micro-plate reader (Benchmark plus Bio-Red, CA, USA) and fold change in SEAP activity is calculated accordingly.
Raw-Blue cells are derived from RAW264.7 macrophages. Then the murine macrophage cell line of Raw-Blue cells is cultured in plastic dishes containing DMEM supplemented with 100 U/mL of penicillin, 100 μg/mL of streptomycin and 10% FBS in an incubator (5% CO2) at 37° C. Cells are sub-cultured every 3 days at a dilution of 1:6.
The SEAP activity in the supernatants of LPS-stimulated RAW-Blue cells reflects the activation of NF-κB. The inhibition of the NF-κB activation can associate with mitigation of colon inflammation responses and apoptosis of intestinal epithelial cells in DSS mouse model. Western blotting and immunofluorescence analysis are performed to determine whether Pd-Ib depressed NF-κB activation. […]

## C/C=C(\C)C(=O)OC1C(=O)c2c(ccc3ccc(=O)oc23)OC1(C)C (single isomer, unassigned; (+)) [Pd-Ib, (+)-3′-Angeloyloxy-4′-keto-3′,4′-dihydroseselin]
[1]
  mRNA expression of TNF-α: inhibit the mRNA expressions of TNF-α and IL-1β in a dose-dependent manner
[2]
  MPO activity in colon: suppresses MPO activity significantly
[3]
  mRNA level of iNOS: remarkedly inhibits the mRNA level of iNOS in a dose-dependent manner
[4]; 1.56 to 20 μg/mL
  cytotoxic effect: does not exhibit cytotoxic effect
[4]; 40, 80, and 100 μg/mL
  cell viability: cell viability is reduced
[5]
  mRNA expression of IL-1β: inhibit the mRNA expressions of TNF-α and IL-1β in a dose-dependent manner
[6]
  IC50: 22.5 µg/mL (≈ 65.8 µM)

From patent US9408828B2, “(+)-3′-angeloyloxy-4′-keto-3′,4′-dihydroseselin for treating inflammation” (Hong Kong Baptist University, priority 2014, dated 2016)
